Reference: patent US8901130B2, “Low hygroscopic aripiprazole drug substance and processes for the preparation” (Ostuka Pharmaceutical Co., Ltd., priority 2001, dated 2014)

Assay: Hygroscopicity test (60° C./100% RH, 24 hours, Karl Fischer water content)
Format: physicochemical
Details: for hygroscopicity (water content after exposure): left for 24 hours in a dessicator set at humidity 100%; for hygroscopicity (water content after exposure) / Moisture Content After 24 hrs (%): temperature 60° C.; for Moisture Content After 24 hrs (%): 24 hours in dessicator at humidity 100%; for Initial Moisture Content (%): before exposure to 60° C./100% humidity
Experimental: (7) Hygroscopicity Test Method
One g of the sample was accurately weighed, in a weighing bottle (diameter 5 cm), covered with kimwipes and left to rest in a 60° C./100% RH environment (water/dessicator). 24 hours later, the weighing bottle was removed, transferred to an environment of a room temperature and about 30% RH (magnesium chloride hexahydrate saturated water solution/dessicator) and left, to rest for 24 hours and the water content of the sample was measured by the Karl Fischer method.

| SMILES | hygroscopicity (water content after exposure) | Moisture Content After 24 hrs (%) | Initial Moisture Content (%) |
| --- | --- | --- | --- |
| O=C1CCc2ccc(OCCCCN3CCN(c4cccc(Cl)c4Cl)CC3)cc2N1 [Anhydrous Aripiprazole Crystals B, aripiprazole] | ≤ 0.4% |  |  |
| O=C1CCc2ccc(OCCCCN3CCN(c4cccc(Cl)c4Cl)CC3)cc2N1 [Example 2, aripiprazole] | ≤ 0.4% | 0.04% | 0.04% |
| O=C1CCc2ccc(OCCCCN3CCN(c4cccc(Cl)c4Cl)CC3)cc2N1 [Example 3, aripiprazole] | ≤ 0.4% | 0.02% | 0.02% |
| O=C1CCc2ccc(OCCCCN3CCN(c4cccc(Cl)c4Cl)CC3)cc2N1 [Example 4, aripiprazole] | ≤ 0.4% | 0.02% | 0.02% |
| O=C1CCc2ccc(OCCCCN3CCN(c4cccc(Cl)c4Cl)CC3)cc2N1 [Example 5, aripiprazole] | ≤ 0.4% | 0.04% | 0.04% |
| O=C1CCc2ccc(OCCCCN3CCN(c4cccc(Cl)c4Cl)CC3)cc2N1 [Example 6, aripiprazole] | ≤ 0.4% | 0.04% | 0.04% |
| O=C1CCc2ccc(OCCCCN3CCN(c4cccc(Cl)c4Cl)CC3)cc2N1 [Example 7, aripiprazole] | ≤ 0.4% | 0.03% | 0.04% |
| O=C1CCc2ccc(OCCCCN3CCN(c4cccc(Cl)c4Cl)CC3)cc2N1 [Example 8, aripiprazole] | ≤ 0.4% | 0.03% | 0.04% |
| O=C1CCc2ccc(OCCCCN3CCN(c4cccc(Cl)c4Cl)CC3)cc2N1 [Example 9, aripiprazole] | ≤ 0.4% | 0.01% | 0.03% |
| O=C1CCc2ccc(OCCCCN3CCN(c4cccc(Cl)c4Cl)CC3)cc2N1 [Example 10, aripiprazole] | no more than 0.4% | 0.05% | 0.05% |
| O=C1CCc2ccc(OCCCCN3CCN(c4cccc(Cl)c4Cl)CC3)cc2N1 [Example 11, aripiprazole] | ≤ 0.4% | 0.03% | 0.03% |
| O=C1CCc2ccc(OCCCCN3CCN(c4cccc(Cl)c4Cl)CC3)cc2N1 [Example 12, aripiprazole] | ≤ 0.4% | 0.03% | 0.04% |
| O=C1CCc2ccc(OCCCCN3CCN(c4cccc(Cl)c4Cl)CC3)cc2N1 [Example 13, aripiprazole] | ≤ 0.4% | 0.03% | 0.04% |
| O=C1CCc2ccc(OCCCCN3CCN(c4cccc(Cl)c4Cl)CC3)cc2N1 [Example 14, aripiprazole] | ≤ 0.4% | 0.09% | 0.06% |
| O=C1CCc2ccc(OCCCCN3CCN(c4cccc(Cl)c4Cl)CC3)cc2N1 [Example 15, aripiprazole] | ≤ 0.4% | 0.04% | 0.04% |
| O=C1CCc2ccc(OCCCCN3CCN(c4cccc(Cl)c4Cl)CC3)cc2N1 [Reference Example 1, aripiprazole] | 3.28% | 3.28% | 0.04% |
| O=C1CCc2ccc(OCCCCN3CCN(c4cccc(Cl)c4Cl)CC3)cc2N1 [Reference Example 2, aripiprazole] | 1.78% | 1.78% | 0.04% |
